Assay results reported in patent US11160871B2, “SSTR-targeted conjugates and particles and formulations thereof” (TARVEDA THERAPEUTICS, INC., priority 2015, dated 2021).
Read-outs that look alike come from different tables or passages of the source.

Key:
[1] = tested on: panel of GPCRs (119 targets); assay: Off-target binding to a panel of GPCRs; conditions: 1 uM concentration
Description: To further study the off-target binding of Conjugate 57, the binding of Conjugate 57 to a panel of GPCRs (119 targets) was measured at 1 uM concentration. Conjugate 57 has no activity against the panel of GPCRs.

[2] = target: hERG (Homo sapiens, UniProt Q12809); assay: IonWorks Quattro hERG assay; assay type: cell-based; conditions: up to 10 uM
[3] = tested on: NCI-H69 SCLC tumors; assay: NCI-H69 SCLC xenografts, PH3 and CC3 after a single dose; assay type: in vivo, mice
Description: Conjugate 57 was assessed in an in vivo study with NCI-H69 SCLC xenografts model. A single 2 mg/kg dose of Conjugate 57 was administered to mice bearing NCI-H69 SCLC tumors. Levels of cell cycle arrest marker phosphohistone H3 (PH3) were measured at the periphery, middle and core of the tumors. Phosphorylated histone H3 is correlated chromosome condensation during both mitosis and meiosis. […] The biological effects from Conjugate 57 were seen deep in the tumor and distant from blood vessels. Cell death peaks at around 3 days after dosing. […] Conjugates of the present invention can rapidly and deeply penetrate tumor and can exert a prolonged effect on tumor biology.

[4] = NCI-H524 small cell lung cancer model, tumor volume and body weight; assay type: in vivo; conditions: in vivo; read-out: maximum tolerated dose (MTD)
Text: (§1) NCI-H524 over expresses SSTR2. […] There was minimal body weight loss and favorable toxicology.

[5] = tested on: NCI-H524 small cell lung cancer model; assay: as above; assay type: in vivo
Text: as §1

[6] = Plasma pharmacokinetics; assay type: in vivo; conditions: for Vd: read-out: Vss
Description: In this example, plasma pharmacokinetics of Conjugate 57 was studied in mouses, rats and dogs. Half-life, maximum plasma drug concentration (Cmax), drug clearance (CL), area under the curve time curve from time 0 to the last sampling time (AUC 0-t), and apparent volume of distribution at steady state (VSS) were measured.

[7] = Allometric scaling of clearance; set-up: species or system human; conditions: from mouse, rat and dog
[8] = tested on: H69 tumor; assay: Histological staining of PH3 and CC3 in periphery, middle and core of H69 tumor; assay type: in vivo
Text: Histological staining of PH3 and CC3 in periphery, middle and core of H69 tumor after Conjugate 57 treatment was shown in FIG. 22A and FIG. 22B. The periphery sample was taken from roughly the outside ⅓ of the tumor. The core sample was taken from roughly the center ⅓ of the tumor. The middle sample was taken from roughly ⅓ in between these locations. Using a 40× high-powered objective, positively stained cells were counted, one field per animal, 3 animals per treatment group. Each field was roughly 500 μm in size. In general, the PH3 staining was strongest on the periphery and decreased as you moved towards the center of the tumor.

[9] = tested on: IMR-32 cells; assay: In vitro competitive assay in IMR-32 cells; assay type: cell-based; conditions: absence of octreotide
Description: First, an in vitro competitive assay was conducted where IMR-32 cells were treated with Conjugate 57 in the absence or presence of an excess of octreotide. […] Pre-incubation with octreotide affected the inhibition.

[10] = tested on: passage 3 IMR-32 tumors; assay: IMR-32 tumor model; assay type: in vivo, mice
Description: Further, mice bearing passage 3 IMR-32 tumors were dosed with Conjugate 57 either at 2.0 mg/kg or 1.5 mg/kg once a week for two weeks with a vehicle negative control. […] The 1.5 mpk group only lost an average of 2.0%. All mice recovered once dosing was complete.

[11] = tested on: MCF-7 breast cancer cells; assay: MCF-7 cell proliferation; assay type: cell-based
Description: In an in vitro study, Conjugate 57 is given to MCF-7 breast cancer cells. Cell proliferation of the MCF-7 cells are measured.

[12] = target: SSTR2 (Homo sapiens, UniProt P30874); assay: SSTR2 receptor internalization in H524-MD tumor xenograft (IHC); assay type: in vivo; set-up: expressed in transfected cells
Description: SSTR2 receptor internalization was studied using Conjugate 57 in a highly expressing SSTR2 positive (SSTR2+) tumor xenograft: H524_MD tumor xenograft. Vehicle (0.1% Solutol/5% Mannitol), Conjugate 57 at 2 mg/kg, scrambled control (BT-984) at 2 mg/kg, and Octreotide at 1.4 mg/kg (ligand alone) were given to SSTR2+H524-MD tumor xenografts (n=3/group). Timepoints—0 hr (Vehicle), 15 mins, 1 hr, 4 hr, 24 hr and 72 hrs. SSTR2 scoring was done by immunohistochemistry (IHC) staining.

[13] = 2 mg/kg, H524-MD tumor xenografts

SSTR2, sequence (P30874 whole entry): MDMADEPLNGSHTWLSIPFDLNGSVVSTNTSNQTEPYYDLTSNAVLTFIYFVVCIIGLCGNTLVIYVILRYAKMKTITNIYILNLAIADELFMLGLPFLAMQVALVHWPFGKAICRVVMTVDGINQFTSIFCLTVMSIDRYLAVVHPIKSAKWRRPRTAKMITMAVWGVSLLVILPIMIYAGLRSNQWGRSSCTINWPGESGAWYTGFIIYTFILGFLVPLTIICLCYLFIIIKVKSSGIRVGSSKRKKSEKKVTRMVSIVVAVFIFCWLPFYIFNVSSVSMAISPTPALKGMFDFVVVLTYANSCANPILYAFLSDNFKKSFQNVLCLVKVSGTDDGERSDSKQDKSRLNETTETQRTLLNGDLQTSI
hERG, sequence (Q12809 whole entry): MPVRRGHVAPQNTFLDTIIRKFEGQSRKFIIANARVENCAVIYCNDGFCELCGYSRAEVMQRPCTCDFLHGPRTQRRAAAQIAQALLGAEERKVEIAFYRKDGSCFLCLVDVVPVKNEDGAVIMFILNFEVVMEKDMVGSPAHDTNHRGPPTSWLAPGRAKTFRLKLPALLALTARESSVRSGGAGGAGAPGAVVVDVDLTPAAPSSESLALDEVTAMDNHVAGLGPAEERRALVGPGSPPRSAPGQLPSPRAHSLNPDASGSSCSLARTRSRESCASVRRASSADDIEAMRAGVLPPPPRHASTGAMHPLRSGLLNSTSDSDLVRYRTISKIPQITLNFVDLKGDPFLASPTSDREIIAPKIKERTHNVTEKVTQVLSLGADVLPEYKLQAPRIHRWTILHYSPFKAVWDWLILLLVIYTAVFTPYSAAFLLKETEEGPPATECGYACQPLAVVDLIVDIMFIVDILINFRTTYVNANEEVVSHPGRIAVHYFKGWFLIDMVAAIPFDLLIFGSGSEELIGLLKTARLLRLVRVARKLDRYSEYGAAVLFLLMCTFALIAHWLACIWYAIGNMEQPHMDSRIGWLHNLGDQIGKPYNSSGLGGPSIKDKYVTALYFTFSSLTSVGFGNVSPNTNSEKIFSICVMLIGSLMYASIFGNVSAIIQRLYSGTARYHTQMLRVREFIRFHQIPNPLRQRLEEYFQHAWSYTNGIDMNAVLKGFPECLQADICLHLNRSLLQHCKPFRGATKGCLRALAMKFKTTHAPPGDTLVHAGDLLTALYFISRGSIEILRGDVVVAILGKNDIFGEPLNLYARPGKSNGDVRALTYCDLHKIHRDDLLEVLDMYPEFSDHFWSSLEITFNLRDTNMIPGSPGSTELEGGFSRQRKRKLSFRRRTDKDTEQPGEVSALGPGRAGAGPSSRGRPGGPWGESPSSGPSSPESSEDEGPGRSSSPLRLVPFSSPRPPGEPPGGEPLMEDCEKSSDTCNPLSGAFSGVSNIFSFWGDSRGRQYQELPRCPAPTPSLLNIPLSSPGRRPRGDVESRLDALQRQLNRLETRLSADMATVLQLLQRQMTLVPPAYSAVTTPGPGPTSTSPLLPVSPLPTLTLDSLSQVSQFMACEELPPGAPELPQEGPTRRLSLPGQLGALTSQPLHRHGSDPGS

With `COc1cc2cc(c1Cl)N(C)C(=O)C[C@H](OC(=O)[C@H](C)N(C)C(=O)CCSSC[C@H](NC(=O)[C@@H]1CSSC[C@H](NC(=O)[C@H](N)Cc3ccccc3)C(=O)N[C@@H](Cc3ccc(O)cc3)C(=O)N[C@H](Cc3c[nH]c4ccccc34)C(=O)N[C@@H](CCCCN)C(=O)N[C@@H]([C@@H](C)O)C(=O)N1)C(N)=O)[C@]1(C)O[C@H]1[C@H](C)[C@@H]1C[C@@](O)(NC(=O)O1)[C@H](OC)/C=C/C=C(\C)C2` [Conjugate 57] the “activity against the panel of GPCRs” value [1] was “no activity”, the “inhibition of hERG” value [2] was “no inhibition” and the “PH3 levels at periphery, middle and core of the tumors” value ([3]; single 2 mg/kg dose) was “Elevated levels of PH3 are seen at all depths of the tumor through 72 h”. The “time of peak cell death (cleaved caspase-3)” value ([3]; single dose of 2 mg/kg) was “around 3 days”, the MTD [4] was 2 mg/kg and the “tumor response (mean tumor volume)” value ([5]; 2 mg/kg (MTD) and 1 mg/kg) was “complete tumor regressions”. The “tolerability (mean body weight change)” value ([5]; in vivo) was “well tolerated”, the AUC(0-t) ([6]; Dog, 0.1 mg/kg) was 0.619 µM·h and the Cmax ([6]; Dog, 0.1 mg/kg) was 0.73 µM. For the same compound, the clearance ([6]; Dog, 0.1 mg/kg) was 1.39 mL/min/kg, the half-life ([6]; Dog, 0.1 mg/kg) was 2.86 h and the Vd ([6]; Dog, 0.1 mg/kg) was 0.224 L/kg. For the same compound, the AUC(0-t) ([6]; Mouse, 2 mg/kg) was 7.3 µM·h, the Cmax ([6]; Mouse, 2 mg/kg) was 5.93 µM and the clearance ([6]; Mouse, 2 mg/kg) was 2.32 mL/min/kg. It also gave a half-life ([6]; Mouse, 2 mg/kg) of 12.2 h, a Vd ([6]; Mouse, 2 mg/kg) of 0.963 L/kg and an AUC(0-t) ([6]; Rat, 1.5 mg/kg) of 2.77 µM·h. It also gave a Cmax ([6]; Rat, 1.5 mg/kg) of 4.69 µM, a clearance ([6]; Rat, 1.5 mg/kg) of 4.99 mL/min/kg and a half-life ([6]; Rat, 1.5 mg/kg) of 8.07 h. For the same compound, the Vd ([6]; Rat, 1.5 mg/kg) was 0.594 L/kg, the “clearance in human predicted by allometric scaling” value [7] was “low clearance” and the “Number of cells with positive CC3 stain, Core” value ([8]; 24 h) was 50.3. The “Number of cells with positive CC3 stain, Middle” value ([8]; 24 h) was 27.0, the “Number of cells with positive CC3 stain, Periphery” value ([8]; 24 h) was 9.7 and the “Number of cells with positive PH3 stain, Core” value ([8]; 24 h) was 74.7. The “Number of cells with positive PH3 stain, Middle” value ([8]; 24 h) was 122.3, the “Number of cells with positive PH3 stain, Periphery” value ([8]; 24 h) was 158.3 and the “Number of cells with positive CC3 stain, Core” value ([8]; 72 h) was 106.7. The “Number of cells with positive CC3 stain, Middle” value ([8]; 72 h) was 72.0, the “Number of cells with positive CC3 stain, Periphery” value ([8]; 72 h) was 41.0 and the “Number of cells with positive PH3 stain, Core” value ([8]; 72 h) was 113.0. For the same compound, the “Number of cells with positive PH3 stain, Middle” value ([8]; 72 h) was 144.3, the “Number of cells with positive PH3 stain, Periphery” value ([8]; 72 h) was 215.7 and the “growth of IMR-32 cells” value [9] was “inhibited the growth of IMR-32 cells”. The “average body weight loss after the second dosing event” value ([10]; 2.0 mg/kg once a week for two weeks) was 8.0%, the “mice showing complete regression” value ([10]; both treatment groups, 2.0 mg/kg or […] once a week for two weeks) was 10 out of 10 and the “proliferation of MCF-7 cells” value [11] was “reduces the proliferation of MCF-7 cells”. The “SSTR2 internalization distribution of staining” value [12, 13] was “significantly different results from BT-984 and naïve at 4 hr, 24 hr, and 72 hours”, the “SSTR2 receptor internalization intensity of staining” value [12, 13] was “significantly different results from scrambled peptide version of compound 57 (BT-984) and naïve at 1 hr, 4 hr, and 72 hours” and the “SSTR2 internalization compared with octreotide” value ([12]; Conjugate 57 2 mg/kg, Octreotide 1.4 mg/kg) was “caused more SSTR2 internalization than octreotide alone”.
